Assay [1] concerns the target T1, FLT-3 tyrosine kinase (Homo sapiens, UniProt P36888).
T1 construct: purchased Upstate Cell Signalling Solutions, CA, USA 14-500
T1 sequence (P36888 27-993): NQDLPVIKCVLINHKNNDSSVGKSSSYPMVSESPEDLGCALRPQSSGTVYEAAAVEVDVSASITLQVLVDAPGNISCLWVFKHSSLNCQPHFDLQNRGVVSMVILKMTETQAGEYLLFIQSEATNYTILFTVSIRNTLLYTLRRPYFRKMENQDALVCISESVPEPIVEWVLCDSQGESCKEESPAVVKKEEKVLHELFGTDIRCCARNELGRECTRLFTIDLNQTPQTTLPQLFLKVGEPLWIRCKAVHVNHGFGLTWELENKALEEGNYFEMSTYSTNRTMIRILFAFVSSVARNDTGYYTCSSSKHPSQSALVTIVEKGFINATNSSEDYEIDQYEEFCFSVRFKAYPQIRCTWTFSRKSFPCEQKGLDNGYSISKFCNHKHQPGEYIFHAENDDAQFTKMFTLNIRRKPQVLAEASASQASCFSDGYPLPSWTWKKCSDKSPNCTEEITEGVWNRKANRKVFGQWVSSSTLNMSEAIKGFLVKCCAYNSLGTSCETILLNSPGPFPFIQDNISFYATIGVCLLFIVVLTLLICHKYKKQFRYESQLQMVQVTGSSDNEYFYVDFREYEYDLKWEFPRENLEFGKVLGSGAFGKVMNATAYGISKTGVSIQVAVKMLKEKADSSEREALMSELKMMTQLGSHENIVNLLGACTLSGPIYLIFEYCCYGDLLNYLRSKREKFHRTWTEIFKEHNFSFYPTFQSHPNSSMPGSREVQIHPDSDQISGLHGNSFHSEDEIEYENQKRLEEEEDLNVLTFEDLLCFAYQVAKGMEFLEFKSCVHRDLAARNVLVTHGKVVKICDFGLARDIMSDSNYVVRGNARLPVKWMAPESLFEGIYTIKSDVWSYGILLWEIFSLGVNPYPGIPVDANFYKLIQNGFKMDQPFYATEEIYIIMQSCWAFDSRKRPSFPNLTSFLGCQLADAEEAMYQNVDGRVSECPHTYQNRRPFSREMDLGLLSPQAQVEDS
In words: Alphascreen tyrosine kinase enzyme assay, FLT-3. Format: biochemical. Conditions: FLT3; read-out: FMS, FLT3, or HCK IC50_nM (FLT3). As for the experimental part: (§1) For screening purposes, compounds (in 100% DMSO) were warmed at 37 degrees for at least 20 minutes before use. A […] stock was initially made in assay buffer, where the final concentration of DMSO was 0.3%. The stocks were then diluted in 384 well Optiplates (Packard) where the final concentration of the compound was […].
FLT-3 tyrosine kinase enzyme was purchased from Upstate Cell Signalling Solutions, CA, USA (flt-3 catalog #: 14-500).
(§2) Kinase assays were performed in 384 well Optiplates (Packard) using an Alphascreen Protein Tyrosine Kinase PY100 detection kit The compounds were pre-incubated with affinity purified PTK domain in the presence of phosphotyrosine assay buffer (10 mM HEPES, pH 7.5, 100 mM MgCl2, 25 mM NaCl, […] and 0.1% Tween 20) for 20 minutes. The compounds were then incubated with substrate in the presence of ATP. The substrate used was susbtrate-1 with the sequence biotin-EGPWLEEEEEAYGWMDF-NH2 [SEQ. ID. NO. 13] (final concentration […]). For HCK 80 μm ATP was used and incubated for 60 minutes. Alphascreen phosphotyrosine acceptor beads followed by streptavidin donor beads at a concentration of 1/100 in stop buffer were added to each well under subdued light and incubated for 2-3 hours., The Alphascreen plates were read on a Packard Fusion Alpha instrument.
On the technique in general: In Alpha technology, singlet oxygen from a donor bead excites a nearby acceptor bead.

Assay [2] addresses T2, human CSF1-R (FMS) (Homo sapiens, UniProt P07333).
T2 construct: from codon I553 to Q961; GST (N); made in house; host or cells: Sf9 insect cells (baculovirus)
T2 sequence (P07333 553-961): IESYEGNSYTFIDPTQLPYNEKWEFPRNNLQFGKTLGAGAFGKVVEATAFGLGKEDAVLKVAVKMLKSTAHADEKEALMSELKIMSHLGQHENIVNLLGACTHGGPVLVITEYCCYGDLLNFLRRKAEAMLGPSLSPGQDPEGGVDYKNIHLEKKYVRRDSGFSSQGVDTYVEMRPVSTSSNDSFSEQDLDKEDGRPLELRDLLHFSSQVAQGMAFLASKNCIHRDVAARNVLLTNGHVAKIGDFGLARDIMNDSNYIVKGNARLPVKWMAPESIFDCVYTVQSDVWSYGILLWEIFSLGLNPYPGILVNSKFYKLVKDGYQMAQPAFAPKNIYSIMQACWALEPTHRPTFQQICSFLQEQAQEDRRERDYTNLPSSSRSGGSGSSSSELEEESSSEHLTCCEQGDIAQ
In words: Alphascreen tyrosine kinase enzyme assay, CSF-1R (FMS) kinase domain. Format: biochemical. Conditions: read-out: FMS, FLT3, or HCK IC50_nM (FMS). As to the method:
as §1
The kinase domain of human CSF1-R from codon I553 to Q961 was cloned into the pDest20 expression vector (Invitrogen). The CSF1-R plasmid was then transformed into competent DH10Bac cells (Gibco), and the recombinant baculovirus produced prepared for transfection into Sf9 insect cells.
Baculovirus preparations from each of the constructs were infected into either one or five liters of Sf9 cells (Invitrogen) grown in SF-900 medium (Invitrogen) to a cell density of approximately 1-2×10^6 cells/ml. Cells were infected with virus at a MOI of 0.8-3.0. Cells were harvested and lysed. Tyrosine kinase domains were purified by affinity chromatography on a glutathione-agarose column (Scientifix Pty. Ltd. catalog #: GSH-200).
as §2

Results on five compounds are retold here after patent US8846704B2, “Thiopyrimidine-based compounds and uses thereof” (YM Biosciences Austraila Pty Ltd, priority 2007, dated 2014).

For the compound `OCc1ccc(Sc2ccnc(Nc3ccc(N4CCOCC4)cc3)n2)cc1` [Compound 67, (4-(2-(4-morpholinophenylao)pyrimidin-4-ylthio)phenyl)methanol], the IC50 in assay [1] was less than 0.1 µM. The same measure, in the same setting: as for `N#CCNCc1cccc(Sc2ccnc(Nc3ccc(N4CCOCC4)cc3)n2)c1` [Compound 68, 2-(3-(2-(4-morpholinophenylao)pyrimidin-4-ylthio)benzylao)acetonitrile], the figure is less than 0.5 µM; as for `OCc1cccc(Sc2ccnc(Nc3ccc(N4CCOCC4)cc3)n2)c1` [Compound 62, (3-(2-(4-Morpholinophenylamino)pyrimidin-4-ylthio)phenyl)methanol], less than 0.1 µM. `C=CC(=O)Nc1ccc(Sc2ccnc(Nc3cc(C)cc(C)c3)n2)cc1` [Compound 82, N-(4-(2-(3,5-dimethylphenylao)pyrimidin-4-ylthio)phenyl)acrylamide]: the IC50 in assay [2] was less than 0.5 µM. The same measure, in the same setting: under `C=CC(=O)Nc1ccc(Sc2ccnc(Nc3cccc(N4CCOCC4)c3)n2)cc1` [Compound 77, N-(4-(2-(3-morpholinophenylao)pyrimidin-4-ylthio)phenyl)acrylamide] stands less than 0.5 µM.
